# Like-named read-outs stand apart in the source and are kept apart here.
# Key:
# [1] = target: T1, human α1G subunits (T-type channels) (Homo sapiens, UniProt O43497); test: Block of α1G T-type channels, patch clamp in HEK cell lines (Example 8); assay type: cell-based
# T1 construct: expressed in transfected cells
# Protocol: Standard patch-clamp techniques were employed to identify blockers of T-type currents. Briefly, previously described HEK cell lines stably expressing human α1G subunits were used for all the recordings (passage #: 4-20, 37° C., 5% CO2). To obtain T-type currents, plastic dishes containing semi-confluent cells were positioned on the stage of a ZEISS AXIOVERT S100 microscope after replacing the culture medium with external solution (see below). Whole-cell patches were obtained using pipettes (borosilicate glass with filament, O.D.: 1.5 mm, I.D.: 0.86 mm, 10 cm length), fabricated on a SUTTER P-97 puller with resistance values of ˜5 MΩ (see below for internal medium).
# In the non-inactivating protocol, the holding potential is set at −110 mV and with a pre-pulse at −100 mV for 1 second prior to the test pulse at −40 mV for 50 ms; in the inactivation protocol, the pre-pulse is at approximately −85 mV for 1 second, which inactivates about 15% of the T-type channels, as shown below. [formula]
# Test compounds were dissolved in external solution, 0.1-0.01% DMSO. After ˜10 min rest, they were applied by gravity close to the cell using a WPI microfil tubing. The “non-inactivated” pre-pulse was used to examine the resting block of a compound. The “inactivated” protocol was employed to study voltage-dependent block, but the initial data shown below were mainly obtained using the non-inactivated protocol only. IC50 values are shown for various compounds of the invention in Table 5.
# [2] = test system: L-type channels (α1C+α2δ+β1b cDNA subunits); test: Selectivity patch clamp, L-type channels in HEK 293 (Example 7); assay type: cell-based; conditions: Tested at 0.1 Hz, 5 mM Ba2+
# [3] = target: T2, rat α1B+α2b+β1b channels (N-type channels) (Rattus norvegicus, UniProt Q02294); test: Block of α1B N-type channels, whole cell patch recordings (Example 6); assay type: cell-based; conditions: HEK 293, 5 mM barium as charge carrier
# T2 construct: expressed in transfected cells
# T2 sequence (Q02294 whole entry): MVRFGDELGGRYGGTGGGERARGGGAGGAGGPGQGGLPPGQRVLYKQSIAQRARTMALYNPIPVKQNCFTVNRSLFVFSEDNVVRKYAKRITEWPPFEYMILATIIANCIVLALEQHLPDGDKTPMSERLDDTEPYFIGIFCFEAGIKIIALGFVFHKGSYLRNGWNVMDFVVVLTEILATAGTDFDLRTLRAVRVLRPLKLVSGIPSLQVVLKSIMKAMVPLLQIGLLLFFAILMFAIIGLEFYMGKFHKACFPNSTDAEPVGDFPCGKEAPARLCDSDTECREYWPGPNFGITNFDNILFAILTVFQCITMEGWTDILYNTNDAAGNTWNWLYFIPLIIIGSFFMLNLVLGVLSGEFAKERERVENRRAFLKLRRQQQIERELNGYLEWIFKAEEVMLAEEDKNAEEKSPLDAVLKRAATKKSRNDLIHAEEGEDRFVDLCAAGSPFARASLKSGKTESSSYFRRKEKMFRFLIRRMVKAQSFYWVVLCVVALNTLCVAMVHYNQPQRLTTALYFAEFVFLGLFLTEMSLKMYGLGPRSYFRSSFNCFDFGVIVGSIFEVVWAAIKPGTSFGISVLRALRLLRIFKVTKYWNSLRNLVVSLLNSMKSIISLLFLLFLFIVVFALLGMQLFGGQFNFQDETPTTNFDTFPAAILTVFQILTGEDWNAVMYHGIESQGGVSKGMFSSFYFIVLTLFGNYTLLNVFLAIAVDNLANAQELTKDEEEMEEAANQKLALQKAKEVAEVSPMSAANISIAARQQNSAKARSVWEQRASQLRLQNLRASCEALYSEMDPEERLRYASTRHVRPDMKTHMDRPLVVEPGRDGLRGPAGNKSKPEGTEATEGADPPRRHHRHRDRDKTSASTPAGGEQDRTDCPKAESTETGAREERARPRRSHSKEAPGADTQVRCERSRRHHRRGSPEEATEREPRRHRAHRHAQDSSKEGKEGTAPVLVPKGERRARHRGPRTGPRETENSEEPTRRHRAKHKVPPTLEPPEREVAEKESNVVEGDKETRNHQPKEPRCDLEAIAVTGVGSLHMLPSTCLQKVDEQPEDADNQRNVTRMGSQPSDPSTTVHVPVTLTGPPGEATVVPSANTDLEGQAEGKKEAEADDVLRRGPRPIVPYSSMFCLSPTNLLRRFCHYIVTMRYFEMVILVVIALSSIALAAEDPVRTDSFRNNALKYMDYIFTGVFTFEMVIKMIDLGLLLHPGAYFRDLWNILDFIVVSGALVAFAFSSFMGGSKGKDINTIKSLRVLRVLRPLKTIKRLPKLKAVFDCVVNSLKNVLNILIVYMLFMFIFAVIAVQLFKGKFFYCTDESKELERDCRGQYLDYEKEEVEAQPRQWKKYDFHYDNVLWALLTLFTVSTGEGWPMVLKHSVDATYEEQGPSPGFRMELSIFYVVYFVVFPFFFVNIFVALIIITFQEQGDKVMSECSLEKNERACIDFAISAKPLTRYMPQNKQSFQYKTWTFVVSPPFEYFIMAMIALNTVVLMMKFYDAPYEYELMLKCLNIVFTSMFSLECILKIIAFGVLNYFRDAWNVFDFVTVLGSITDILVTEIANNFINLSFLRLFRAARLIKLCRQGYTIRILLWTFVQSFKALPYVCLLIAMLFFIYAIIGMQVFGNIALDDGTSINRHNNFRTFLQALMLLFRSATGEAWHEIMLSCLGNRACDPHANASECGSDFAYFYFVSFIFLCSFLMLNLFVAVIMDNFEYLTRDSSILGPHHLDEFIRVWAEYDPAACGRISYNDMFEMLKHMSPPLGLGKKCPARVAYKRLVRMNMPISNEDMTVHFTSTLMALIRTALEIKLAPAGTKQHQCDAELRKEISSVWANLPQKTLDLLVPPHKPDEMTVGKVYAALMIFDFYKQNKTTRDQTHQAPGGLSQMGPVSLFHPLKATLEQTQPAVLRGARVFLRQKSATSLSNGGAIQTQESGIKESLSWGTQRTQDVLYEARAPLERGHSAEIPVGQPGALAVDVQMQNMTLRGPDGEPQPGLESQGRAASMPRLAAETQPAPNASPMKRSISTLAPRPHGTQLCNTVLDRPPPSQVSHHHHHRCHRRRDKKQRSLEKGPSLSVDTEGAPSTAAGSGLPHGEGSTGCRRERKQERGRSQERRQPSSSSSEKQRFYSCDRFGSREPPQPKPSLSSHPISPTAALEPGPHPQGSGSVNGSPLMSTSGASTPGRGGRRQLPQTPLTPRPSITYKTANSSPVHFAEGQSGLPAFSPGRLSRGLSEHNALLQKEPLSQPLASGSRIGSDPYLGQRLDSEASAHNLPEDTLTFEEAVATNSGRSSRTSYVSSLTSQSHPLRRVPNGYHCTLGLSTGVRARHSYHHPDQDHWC
# Protocol: Antagonist activity was measured using whole cell patch recordings on human embryonic kidney cells either stably or transiently expressing rat α1B+α2b+β1b channels (N-type channels) with 5 mM barium as a charge carrier.
# For transient expression, host cells, such as human embryonic kidney cells, HEK 293 (ATCC# CRL 1573) were grown in standard DMEM medium supplemented with 2 mM glutamine and 10% fetal bovine serum. HEK 293 cells were transfected by a standard calcium-phosphate-DNA coprecipitation method using the rat α1B+β1b+α2δ N-type calcium channel subunits in a vertebrate expression vector (for example, see Current Protocols in Molecular Biology).
# After an incubation period of from 24 to 72 hrs the culture medium was removed and replaced with external recording solution (see below). Whole cell patch clamp experiments were performed using an Axopatch 200B amplifier (Axon Instruments, Burlingame, Calif.) linked to an IBM compatible personal computer equipped with pCLAMP software. Borosilicate glass patch pipettes (Sutter Instrument Co., Novato, Calif.) were polished (Microforge, Narishige, Japan) to a resistance of about 4 MΩ when filled with cesium methanesulfonate internal solution (composition in MM: 109 CsCH3SO4, 4 MgCl2, 9 EGTA, 9 HEPES, pH 7.2). Cells were bathed in 5 mM Ba^++ (in mM: 5 BaCl2, 1 MgCl2, 10 HEPES, 40 tetraethylammonium chloride, 10 glucose, 87.5 CsCl pH 7.2). […] Drugs were perfused directly into the vicinity of the cells using a microperfusion system.
# Normalized dose-response curves were fit (Sigmaplot 4.0, SPSS Inc., Chicago, Ill.) by the Hill equation to determine IC50 values. Steady-state inactivation curves were plotted as the normalized test pulse amplitude following 5 s inactivating prepulses at +10 mV increments. Inactivation curves were fit (Sigmaplot 4.0) with the Boltzman equation, Ipeak (normalized)=1/(1+exp((V-Vh)z/25.6)), where V and Vh are the conditioning and half inactivation potentials, respectively, and z is the slope factor.
# Using the procedure set forth above, various compounds of the invention were tested for their ability to block N-type calcium channels.
# [4] = test system: P/Q-type channels (α1A+α2δ+β1b cDNA subunits); test: Selectivity patch clamp, P/Q-type channels in HEK 293 (Example 7); assay type: cell-based; conditions: Tested at 0.1 Hz, 5 mM Ba2+
# [5] = target: T3, N-type calcium channels (α1B+α2δ+β1b cDNA subunits) (Rattus norvegicus, UniProt Q02294); test: Selectivity patch clamp, N-type channels in HEK 293 (Example 7); assay type: cell-based; conditions: Tested at 0.1 Hz, 5 mM Ba2+
# T3 construct: expressed in transfected cells
# T3 sequence (Q02294 whole entry): as above
# [6] = test system: rat formalin model; test: Formalin-induced pain model; assay type: in vivo; conditions: 30 mg/kg IP, 10 minutes prior to formalin, saline control=100%
# Protocol: The effects of intrathecally delivered compounds of the invention on the rat formalin model were measured. The compounds were reconstituted to stock solutions of approximately 10 mg/ml in propylene glycol. Eight Holtsman male rats of 275-375 g size were randomly selected per test compound.
# The following study groups were used, with test compounds, vehicle control (propylene glycol) and saline delivered intraperitoneally (IP):
# Prior to initiation of drug delivery baseline behavioral and testing data were taken.
# On the morning of testing, a small metal band (0.5 g) was loosely placed around the right hind paw. The rat was placed in a cylindrical Plexiglas chamber for adaptation a minimum of 30 minutes. Test compound or vehicle control was administered 10 minutes prior to formalin injection (50 μl of 5% formalin) into the dorsal surface of the right hindpaw of the rat. The animal was then placed into the chamber of the automated formalin apparatus where movement of the formalin injected paw was monitored and the number of paw flinches tallied by minute over the next 60 minutes. (See Malmberg, A. M., and Yaksh, T. L., Anesthesiology (1993) 79:270-281.)
# Results are presented as Maximum Possible Effect±SEM, where saline control=100%.
# [7] = 100 mV (non-inactivating protocol), read-out: Block of α1G T-type Channels IC50, 100 mV
# [8] = 0.067 Hz, read-out: Block of α1B N-type Channels IC50, 0.067 Hz
# [9] = 0.2 Hz, read-out: Block of α1B N-type Channels IC50, 0.2 Hz
# [10] = 80 mV (inactivation protocol), read-out: Block of α1G T-type Channels IC50, 80 mV
# T1 sequence (O43497 whole entry): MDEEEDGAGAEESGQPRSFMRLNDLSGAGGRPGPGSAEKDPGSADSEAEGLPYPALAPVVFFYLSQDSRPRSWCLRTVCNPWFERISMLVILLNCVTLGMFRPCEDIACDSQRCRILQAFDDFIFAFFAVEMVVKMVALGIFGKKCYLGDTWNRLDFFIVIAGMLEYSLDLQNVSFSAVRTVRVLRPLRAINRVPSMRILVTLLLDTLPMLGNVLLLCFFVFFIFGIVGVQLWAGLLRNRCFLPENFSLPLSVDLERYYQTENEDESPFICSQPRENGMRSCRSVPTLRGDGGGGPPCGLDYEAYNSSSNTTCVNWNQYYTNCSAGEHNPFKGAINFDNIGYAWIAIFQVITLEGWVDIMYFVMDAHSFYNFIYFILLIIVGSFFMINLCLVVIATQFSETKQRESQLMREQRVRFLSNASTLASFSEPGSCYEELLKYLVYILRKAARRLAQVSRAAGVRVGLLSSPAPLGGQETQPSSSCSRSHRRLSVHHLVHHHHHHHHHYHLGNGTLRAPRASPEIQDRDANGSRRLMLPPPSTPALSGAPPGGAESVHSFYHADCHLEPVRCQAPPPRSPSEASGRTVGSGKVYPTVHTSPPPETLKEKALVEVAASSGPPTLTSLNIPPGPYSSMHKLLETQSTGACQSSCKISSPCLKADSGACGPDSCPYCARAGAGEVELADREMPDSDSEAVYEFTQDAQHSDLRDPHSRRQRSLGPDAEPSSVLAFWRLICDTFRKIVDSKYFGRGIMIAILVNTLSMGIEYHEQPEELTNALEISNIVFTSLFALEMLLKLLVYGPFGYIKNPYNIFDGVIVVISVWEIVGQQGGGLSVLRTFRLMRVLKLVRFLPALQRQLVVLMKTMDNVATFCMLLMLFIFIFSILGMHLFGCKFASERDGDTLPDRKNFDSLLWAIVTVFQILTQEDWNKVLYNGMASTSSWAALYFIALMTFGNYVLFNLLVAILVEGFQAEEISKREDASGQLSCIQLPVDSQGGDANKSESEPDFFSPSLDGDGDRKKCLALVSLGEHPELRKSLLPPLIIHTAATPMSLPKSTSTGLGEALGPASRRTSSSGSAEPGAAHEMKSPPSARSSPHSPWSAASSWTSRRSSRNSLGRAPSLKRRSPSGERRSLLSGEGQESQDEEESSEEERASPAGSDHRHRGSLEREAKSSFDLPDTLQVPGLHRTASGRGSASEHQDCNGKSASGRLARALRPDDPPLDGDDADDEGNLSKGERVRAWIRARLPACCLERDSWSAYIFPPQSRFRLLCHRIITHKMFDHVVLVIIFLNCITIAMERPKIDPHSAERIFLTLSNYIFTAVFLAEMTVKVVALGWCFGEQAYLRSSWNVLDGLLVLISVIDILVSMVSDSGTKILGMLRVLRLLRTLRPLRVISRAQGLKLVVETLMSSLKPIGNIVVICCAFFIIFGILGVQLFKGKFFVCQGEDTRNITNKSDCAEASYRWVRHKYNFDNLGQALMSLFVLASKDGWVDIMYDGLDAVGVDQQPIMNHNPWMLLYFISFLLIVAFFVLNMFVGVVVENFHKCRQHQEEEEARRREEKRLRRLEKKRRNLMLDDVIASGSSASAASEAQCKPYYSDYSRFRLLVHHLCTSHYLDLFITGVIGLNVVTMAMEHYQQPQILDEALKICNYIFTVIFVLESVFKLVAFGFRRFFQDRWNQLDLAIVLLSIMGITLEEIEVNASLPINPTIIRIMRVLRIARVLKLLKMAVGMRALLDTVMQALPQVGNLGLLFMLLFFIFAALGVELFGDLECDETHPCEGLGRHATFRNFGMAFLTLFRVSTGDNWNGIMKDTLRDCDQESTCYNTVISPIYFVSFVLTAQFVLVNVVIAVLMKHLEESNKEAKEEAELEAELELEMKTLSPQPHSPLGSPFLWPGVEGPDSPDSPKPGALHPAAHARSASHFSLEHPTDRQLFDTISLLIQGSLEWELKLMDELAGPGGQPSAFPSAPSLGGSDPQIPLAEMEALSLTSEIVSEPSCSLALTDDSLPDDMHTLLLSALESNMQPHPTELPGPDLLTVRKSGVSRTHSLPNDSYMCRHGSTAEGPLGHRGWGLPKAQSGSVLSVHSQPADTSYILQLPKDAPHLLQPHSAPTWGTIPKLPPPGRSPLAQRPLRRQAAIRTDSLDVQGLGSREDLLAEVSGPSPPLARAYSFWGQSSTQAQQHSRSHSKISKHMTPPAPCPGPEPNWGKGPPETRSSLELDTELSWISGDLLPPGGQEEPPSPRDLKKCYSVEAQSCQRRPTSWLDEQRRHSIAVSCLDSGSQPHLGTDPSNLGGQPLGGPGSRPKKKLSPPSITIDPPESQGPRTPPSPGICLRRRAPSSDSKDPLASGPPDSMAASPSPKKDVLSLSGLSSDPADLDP
"IC50 [1, 7]",IC50 [2],"IC50 [3, 8]","IC50 [3, 9]",IC50 [4],IC50 [5],"IC50 [1, 10]",SMILES,"Maximum Possible Effect ± SEM, Phase I [6]","Maximum Possible Effect ± SEM, Phase II [6]","Maximum Possible Effect ± SEM, Phase IIA [6]"
81 nM,133000 nM,170 nM,120 nM,4500 nM,160 nM,,O=C(CC(c1ccccc1)c1ccccc1)N1CCN(C(c2ccccc2)c2ccc(Cl)cc2)CC1 (centres unmarked) [Compound P6],,,
33 nM,126000 nM,,,26000 nM,385 nM,4 nM,O=C(CC(c1ccccc1)c1ccccc1)N1CCN(C(c2ccccc2)c2ccc(Cl)cc2Cl)CC1 (centres unmarked) [Compound P29],78 ± 17%,70 ± 10%,61 ± 9%
,6600 nM,200 nM,105 nM,1630 nM,113 nM,,O=C(CC(c1ccccc1)c1ccccc1)N1CCN(C(c2ccccc2)c2cccc(C(F)(F)F)c2)CC1 (centres unmarked) [Compound P2],57 ± 14%,67 ± 10%,61 ± 11%
,> 10000 nM,291 nM,111 nM,7590 nM,185 nM,,COc1ccc(C(c2ccc(C(F)(F)F)cc2)N2CCN(C(=O)CC(c3ccccc3)c3ccccc3)CC2)cc1 (centres unmarked) [Compound P3],89 ± 8%,79 ± 4%,85 ± 5%
,15800 nM,213 nM,137 nM,6500 nM,101 nM,,O=C(CC(c1ccccc1)c1ccccc1)N1CCN(C(c2ccccc2)c2ccc3c(c2)OCO3)CC1 (centres unmarked) [Compound P7],56 ± 12%,67 ± 6%,61 ± 11%
,37100 nM,230 nM,140 nM,3400 nM,360 nM,,Cl.O=C(O)C1CN(C(c2ccccc2)c2ccccc2)CCN1C(=O)CC(c1ccccc1)c1ccccc1 (centres unmarked) [Compound P8],78 ± 5%,70 ± 15%,57 ± 18%
,106000 nM,211 nM,92 nM,7030 nM,209 nM,141 nM,O=C(CC(c1ccccc1)c1ccccc1)N1CCN(C(c2ccccc2)c2ccccc2Cl)CC1 (centres unmarked) [Compound P35],78 ± 8%,67 ± 8%,52 ± 11%
35 nM,13400 nM,324 nM,237 nM,3590 nM,217 nM,,Cc1ccc(C(c2ccccc2)N2CCN(C(=O)CC(c3ccccc3)c3ccccc3)CC2)c(C)c1 (centres unmarked) [Compound P18],73 ± 17%,84 ± 12%,78 ± 13%
,19600 nM,100 nM,74 nM,970 nM,190 nM,,O=C(CC(c1ccccc1)c1ccccc1)N1CCN(C(c2ccccc2)c2ccc(C(F)(F)F)cc2)CC1 (centres unmarked) [Compound P1],,,
,8500 nM,114 nM,44 nM,930 nM,206 nM,55 nM,O=C(CC(c1ccccc1)c1ccccc1)N1CCN(C(c2ccccc2)c2cccc(Cl)c2)CC1 (centres unmarked) [Compound P36],62 ± 14%,60 ± 10%,42 ± 9%
1440 nM,4370 nM,237 nM,138 nM,1860 nM,197 nM,464 nM,O=C(CC(c1ccccc1)c1ccccc1)N1CCN([C@@H](c2ccccc2)c2ccc(Cl)cc2)CC1 [Compound P47],60 ± 7%,55 ± 8%,54 ± 9%
,> 10000 nM,213 nM,114 nM,> 10000 nM,251 nM,,CC(C)(C)c1cc(C(c2ccccc2)N2CCN(C(=O)CC(c3ccccc3)c3ccccc3)CC2)cc(C(C)(C)C)c1O (centres unmarked) [Compound P4],,,
,210000 nM,160 nM,120 nM,5000 nM,73 nM,,CCOC(=O)C1CN(C(c2ccccc2)c2ccccc2)CCN1C(=O)CC(c1ccccc1)c1ccccc1 (centres unmarked) [Compound P5],,,
